Source: paper PMC10514447 (The Journal of Biological Chemistry, 2023)

Test system: GCGR ECD
Test: TIRF-based smFRET of GCGR ECD dynamics in the presence of ligands
Set-up: species or system human
Details: for smFRET histogram peak location (FRET efficiency), green peak / smFRET histogram peak location (FRET efficiency), red peak: 64 molecules (glucagon), 86 (MK0893)
Excerpt: We used smFRET to examine the conformational behavior of the GCGR ECD. smFRET is a well-established technique for studying the conformational dynamics of biomolecules at the single molecule level ([38], [39]), as it is sensitive to changes in distances in vitro and in cells ([40]). First, we specifically expressed and purified a GCGR with two surface-exposed cysteines at positions 49 (Cys49) of the ECD and 287 (Cys287) of the extracellular side of helix IV (Fig. S4B). These two cysteines were site-specifically labeled with a FRET donor (Alexa Fluor 555) and a FRET acceptor (Alexa Fluor 647). The efficiency of energy transfer will report the proximity between the donor and acceptor fluorophores and any changes in that distance ([41], [42]). To view receptors under smFRET, the doubly labeled GCGR was surface-immobilized on a PEG-passivated quartz microscope slide using a biotin–streptavidin interaction, as shown in Figure 1A. A biotinylated anti-FLAG antibody was used to capture the FLAG-tagged GCGR (Fig. 1A). A 532 nm laser was used to excite the donor fluorophore by creating the evanescent field from the total internal reflection of the laser beam (Fig. 1A). The emission signals from the donor and acceptor fluorophores were detected by an electron-multiplied back-illuminated CCD camera. […] A control experiment was performed to test the specific immobilization of GCGR–micelle using a biotinylated antibody to a PEG-passivated quartz surface (Fig. S5A). […] Single-molecule fluorescence time trajectories were assessed and analyzed using custom software written in MATLAB.
Single-molecule fluorescence data were recorded using a customized prism-based total internal reflection fluorescence imaging system based on an inverted IX73 microscope (Olympus) equipped with a X60 objective (Olympus, 1.49 numerical aperture, water) as described in earlier publications ([47], [48], [49]). Quartz microscope slides (G. Finkenbeiner) and coverslips (Fisher Scientific #1254588) were cleaned and passivated with polyethylene glycol (m-PEG-SVA) and 3% (w/w) biotin-PEG-SVA (Laysan Bio) to prevent nonspecific protein adsorption, as previously described ([30]). A sample chamber was prepared using double-sided tape (Scotch) on PEGylated slides and coverslips ([48]). The sample chamber was first coated with 0.02 mg/ml NeutrAvidin (ThermoFisher Scientific #PI31000) and washed with T50 buffer (10 mM Tris, pH 7.4, 50 mM NaCl). A […] biotin-conjugated anti-FLAG antibody (GenScript #A01429) was injected and incubated for 20 min, followed by washing with the imaging buffer (25 mM HEPES pH 7.5, 150 mM NaCl, 2 mM Trolox, 0.05% DDM, 0.01% CHS) to remove unbound biotinylated anti-FLAG antibody. The GCGR sample was diluted in an imaging buffer, introduced into the sample chamber, and incubated for 30 min. The sample chamber was washed extensively with an imaging buffer to remove any unbound receptors. Finally, an oxygen scavenging system, 5 mM protocatechuic acid (Sigma #37580), and 3 U/ml protocatechuate-3,4-dioxygenase (Oriental Yeast) ([50]) in the imaging buffer were applied before total internal reflection fluorescence illumination. The sample was excited at […] (CrystaLaser), and emission intensities from both donor and acceptor fluorophores were collected on an EMCCD camera (Andor Technology) with 100 ms integration time using a custom single-molecule data acquisition program ([48]). All single-molecule measurements were performed at room temperature. Single-molecule time trajectories were extracted using scripts written in IDL software (Harris Geospatial Solutions, Inc).

[1] = GCGR labeled Alexa Fluor 555/647 at Cys49 and Cys287, DDM-CHS micelle, room temperature, Gaussian fit
[2] = Gaussian fit of smFRET histogram, ligand-bound GCGR
[3] = calculated from peak centre with Förster equation, R0 51 Å, glucagon-bound GCGR

Compound	smFRET histogram peak location (FRET efficiency), green peak [1]	smFRET histogram peak location (FRET efficiency), red peak [1]	smFRET histogram peak width, green peak [2]	smFRET histogram peak width, red peak [2]	smFRET histogram relative peak area, green peak [2] [%]	smFRET histogram relative peak area, red peak [2] [%]	effect on the FRET distribution relative to apo-GCGR (saturating concentration of antagonist, histogram from 86 molecules)	smFRET histogram peak location (FRET efficiency), blue peak (GCGR labeled Alexa Fluor 555/647 at Cys49 and Cys287, DDM-CHS micelle, room temperature, Gaussian fit, 64 molecules)	smFRET histogram peak width, blue peak [2]	smFRET histogram relative peak area, blue peak [2] [%]	calculated distance, 0.53 FRET state [3] [Å]	calculated distance, 0.67 FRET state [3] [Å]	distance between the two fluorophores, 0.86 FRET state [3] [Å]
COc1ccc2cc(-c3cc(-c4cc(Cl)cc(Cl)c4)nn3[C@@H](C)c3ccc(C(=O)NCCC(=O)O)cc3)ccc2c1 [MK0893]	0.91	0.75	0.09	0.19	47	53	no effect on the FRET distribution relative to the apo-GCGR						
glucagon	0.86	0.67	0.14	0.11	59	17		0.53	0.24	24	50.0	45.3	37.7
